Experimental data: a melting point compilation (Tetko et al.; mined from patent text by program, amines drawn as free bases though some values may be those of a salt)

In the case of CCCCc1nc(C(C)(O)CC)c(C(=O)O)n1Cc1ccc(-c2ccccc2-c2nnn[nH]2)cc1 (stereo not given), the melting point is reported as 152 to 154 °C.
Compound Nn1c(C(F)(F)F)cc(-c2ccc(C(F)(F)F)cc2)cc1=O has a melting point of 125 °C.
For c1ccc2ncc(N3CCNCC3)cc2c1, the melting point was 87.7 to 88.5 °C.
C=CCOc1ccc(C=CC(=O)N2CCN(c3nc(N)c4cc(OC)c(OC)cc4n3)CC2)cc1 gave a melting point of 218 to 220 °C.
In the case of COC(=O)c1ccc(Cc2cn(C/C=C/c3ccc4ccc(Cl)cc4n3)c3ccc([N+](=O)[O-])cc23)c(OC)c1, the melting point is reported as 158 to 160 °C.
Compound Cn1cc(C(=O)Nc2ccccc2-c2ccc(Cl)cc2Cl)c(C(F)(F)F)n1 has a melting point of 136 to 140 °C.
COc1cc2c(c(Cl)c1Cl)C(=O)C(C)(c1ccc(Cl)cc1)C2 (stereo not given) gave a melting point of 176 to 178 °C.
For CC(C)(C)c1cc(-c2noc(N)n2)cc(C(C)(C)C)c1O, the melting point was 202 to 204 °C.
Compound CSc1ccc(-c2ccccc2)c(NC(N)=S)c1 has a melting point of 166 to 167 °C.
Compound CC(C)C1c2onc(-c3ccc(Cl)cc3)c2CCC1C(=O)O (stereo not given) has a melting point of 180 to 182 °C.
For COc1ccc2[nH]c(-c3nc(C)no3)cc2c1, the melting point was 141 to 142 °C.
Oc1[nH]nc2c1-c1ccc(Cl)cc1CC2 showed a melting point of 232 to 233 °C.
Work on O=c1cc2c(nn1-c1ccc(Cl)cc1)-c1cccc(Cl)c1SCC2 yielded a melting point of 166 to 168 °C.
O=C(O)c1cc(Cl)ccc1C(O)=NCc1ccccc1 showed a melting point of 117 to 119 °C.
With COC(=O)C(C)(C)C(=O)OCOC1=C(C(=O)Nc2ccccn2)N(C)S(=O)(=O)c2ccccc21 the melting point was 112 to 114 °C.
With CC(C)(N)CNC(=O)Cc1ccccc1 the melting point was 68 to 71 °C.
With CC(=O)c1cccc(NC(=O)c2ccc3c(c2)CC(CSCc2ccccc2)O3)c1O (stereo not given) the melting point was 119 to 121 °C.
In the case of CC(=O)N(O)Cc1ccc(C(O)C#Cc2cccs2)cc1 (stereo not given), the melting point is reported as 125 to 126 °C.
For CCc1[nH]n(C2CCCC2)c2nc(-c3cccc(OCCN4CCCCC4)c3)nc(=O)c1-2, the melting point was 180 °C.
With COc1ccccc1CNc1ccc2cc(Nc3nc(C)no3)ccc2n1 the melting point was 175 °C.
Compound COC(=O)CSc1ccc(OC)cc1C(=O)OC has a melting point of 55 to 57 °C.
With CS(=O)(=O)N(c1ccc(CN2N=C(c3ccc(Cl)cc3)c3ccccc3-n3cnnc32)cc1)S(C)(=O)=O the melting point was 220 to 221 °C.
Compound c1ccc(C(CC2CC3CCN2CC3)c2ccccc2)cc1 (stereo not given) has a melting point of 87.5 to 89 °C.
Compound COC(=O)CCc1c[nH]c2ccccc12 has a melting point of 162 to 164 °C.
Work on COc1ccc(C(=O)Oc2ccccc2)nc1C yielded a melting point of 103 to 105 °C.
With CCOC(=O)c1oc2ccc(CSC)c(O)c2c1C the melting point was 101 °C.
Compound OCCNc1ccnc2cc(C(F)(F)F)ccc12 has a melting point of 181 to 182 °C.
Compound CCCCCCc1ccc(CCCCC(NC(C)=O)(C(=O)OCC)C(=O)OCC)cc1 has a melting point of 57 to 58 °C.
In the case of N#Cc1nsc2ccc([N+](=O)[O-])cc12, the melting point is reported as 168 to 170 °C.
Nc1c(-c2cccs2)nsc1C(=O)O gave a melting point of 221 to 224 °C.
With CCCCc1cc(C=CC(=O)OC)c[nH]1 the melting point was 65 to 67 °C.
CC1(C)OC(=O)Nc2ccc(-c3cc(F)cc([N+](=O)[O-])c3)cc21 gave a melting point of 260 to 261 °C.
In the case of O=C1Nc2ccc(Cl)cc2Cn2nnnc21, the melting point is reported as 260 to 264 °C.
Work on CCCCNC(=S)Nc1cccc(-c2ccnc3c(C(=O)c4cccs4)cnn23)c1 yielded a melting point of 155 to 157 °C.
N#CC(C#N)=Cc1ccc(OS(=O)(=O)c2cc(Cl)c(Cl)cc2Cl)cc1 gave a melting point of 165 to 166 °C.
Compound O=c1nc(Nc2ccc(C(F)(F)F)cc2)sc2ncccc12 has a melting point of 280 to 283 °C.
Compound O=C(O)c1ccccc1N1CCN(CC(O)COc2ccccc2)CC1 (stereo not given) has a melting point of 235 to 237 °C.
With CN(C)c1ccc(C(=O)c2ccc(O)cc2)cc1 the melting point was 199 to 200 °C.
For CC(C)Oc1ccc(-c2nn(C(C)c3oc4ccccc4c(=O)c3-c3cccc(F)c3)c3ncnc(N)c23)cc1Cl (stereo not given), the melting point was 198 to 200 °C.
In the case of COc1cc(OC)cc(N2CCN(C(=O)Nc3nc4ccccc4nc3OC)CC2)c1, the melting point is reported as 140 to 141 °C.
For CN(C)C1(c2ccccc2)CCC(CC(=O)N2CCC(c3c[nH]c4ccccc34)C2)CC1 (stereo not given), the melting point was 98 to 100 °C.
With COC(=O)c1ccc(OCc2ccccc2)c(C(C)=O)c1 the melting point was 68 to 72 °C.
COc1ccc(N=C(C#Cc2ccccc2)N2CCCN(Cc3ccc(C)cc3)CC2)cc1 gave a melting point of 66 °C.
C=CCn1c2ccccc2c2ccccc21 gave a melting point of 52 to 54 °C.
c1ccc(N2CCNc3nc4ccccc4n3CC2)cc1 showed a melting point of 156 to 158 °C.
CC1(C)c2ccccc2N2Cc3cc([N+](=O)[O-])ccc3OC21C (stereo not given) gave a melting point of 180 °C.
Work on Cc1cc([N+](=O)[O-])c(Cl)c([N+](=O)[O-])c1S(N)(=O)=O yielded a melting point of 205 to 215 °C.
For O=C(c1ccccc1)N1CCCC2=C1CCc1cc(Cl)ccc12, the melting point was 194 to 196 °C.
CC(C)(C)C(=O)c1ccc(C(=O)N(C(=O)c2ccc(C(=O)C(C)(C)C)cc2)C(=O)c2ccccc2C(=O)C(C)(C)C)cc1 showed a melting point of 185 to 188 °C.
Compound O=c1nc(N2CCN(c3cccc(C(F)(F)F)c3)CC2)sc2c([N+](=O)[O-])cc(C(F)(F)F)cc12 has a melting point of 201 to 203 °C.
In the case of O=C(NCCc1c(Cl)cccc1Cl)c1c(Cl)ccc2nc(N3CCC(C(=O)O)CC3)ccc12, the melting point is reported as 262 to 264 °C.
For CC1(C)Cc2c(c(N3CCCC3)nc3sc4c(NCc5ccncc5)ncnc4c23)CO1, the melting point was 228 to 229 °C.
COC(=O)COc1nc(Cl)c(Cl)cc1Cl gave a melting point of 99 to 103 °C.
For CC12CC(=O)C3C(CCC4CC(O)CCC43C)C1CCC2C(=O)CCOC(=O)CCl (stereo not given), the melting point was 95 to 97 °C.
Compound CCn1nc(-c2cccc(Cl)c2)c2ncccc2c1=O has a melting point of 117 to 118 °C.
Compound COc1ccc(CNc2nc(-c3ccc(C(=O)O)cc3)nc3sc(C(F)(F)F)cc23)cc1OC has a melting point of 250 °C.
Work on CN(C)CCN(C)C(=O)c1ccc2cc(-c3csc(N(C)S(=O)(=O)c4ccccc4)n3)c(=O)[nH]c2c1 yielded a melting point of 144 to 148 °C.
For O=C(O)CN1C(=O)C(c2ccccc2)SC1=S (stereo not given), the melting point was 158 to 159 °C.
Compound O=C(NO)[C@H](CNCS(=O)(=O)c1ccc(OCc2ccccc2)cc1)N1CCCCC1 has a melting point of 102 °C.
For O=C(NC1(CO)NCC(O)C(O)C1O)c1ccccc1 (stereo not given), the melting point was 154 to 156 °C.
Compound O=C(O)C1CCN(c2cc(-c3ccc(Cl)cc3)nc3ccccc23)CC1 has a melting point of 245 to 247 °C.
CCOC(=O)Cc1c(C(=O)OCC)c(CC)cn1C gave a melting point of 65 to 67 °C.
Cc1ccc(-c2cccc(/C=C/C(=O)Nc3ccc(CN4CCCCC4CCO)cc3)c2)cc1 (stereo not given) showed a melting point of 142 to 143 °C.
CC(=O)Oc1c(C2CCN(CCCCNC(=O)c3ccc(-c4ccc(C#N)cc4)cc3)CC2)ccc2ccccc12 gave a melting point of 115 to 120 °C.
O=C1NCCc2c(-c3ccc(F)c(Cl)c3)[nH]c3cccc1c23 showed a melting point of 234 to 235 °C.
In the case of O=C(NCCSc1cccc2nccn12)c1ccccc1O, the melting point is reported as 156 to 157 °C.
Work on CCOC(=O)c1ccc(NC(=O)NC2CN(C(=O)c3cccs3)c3ccc(C)cc3N(CC(=O)c3cccs3)C2=O)cc1 (stereo not given) yielded a melting point of 244 °C.
O=C1c2c(O)ccc(O)c2C(=O)c2c(NCCN(CCO)C(=O)C(F)(F)F)ccc(NCCN(CCO)C(=O)C(F)(F)F)c21 gave a melting point of 162 °C.
For O=C1CN(NC(=O)Sc2ccccc2)C(=O)N1, the melting point was 152 to 155 °C.
CN1CCN(c2ccc(C#N)c3ccccc23)CC1 gave a melting point of 128 to 129 °C.
